Experiments:
head lice [1] = assay: In vitro immersion reflex test: louse placed in a drop of wet agent on a microscope slide; design: species or system Pediculus humanus capitis; conditions: water by itself
Excerpt: Driable pediculostatic agents useful in the methods and kits of the present invention are characterized by their ability to induce an immersion reflex in lice in their wet form and to keep the lice in the immersion reflex once dried. The following in vitro test can be conveniently used to determine whether any individual agent is a pediculostatic agent, and can further be used for routine screening of agents—such as those from natural products libraries and combinatorial chemical libraries—to identify those that can be used in the methods, compositions, and kits of the present invention:
1. Contact a louse with an agent suspected of being a pediculostatic agent; and
2. Observe whether the louse becomes immobile.
Observations can readily be performed using a standard inexpensive light microscope with 10× or 40× magnification. The length of time necessary to render the louse completely immobile, in minutes, is the Immersion Reflex Index of the agent tested.
Ten crawling lice were obtained from patients with head lice and each one placed on a separate microscope slide for observation under a microscope at 10× or 40× power. […] Within 6 seconds of application, they stopped all spontaneous movement. Usually within 30 seconds, and always within 60 seconds, they would not respond to contact by a probe and ceased previously visible gastrointestinal motility. […]

head lice [2] = assay: In vitro test of agent dried onto lice (driable pediculostatic agent test); design: species or system Pediculus humanus capitis; conditions: water by itself
Excerpt: Contact a louse with a pediculostatic agent for a period of time sufficient to immobilize the louse (i.e., for at least 1× the Immersion Reflex Index of the agent);
Dry the agent onto the louse, either by air-drying or by application of heat, and observe whether the louse remains immobilized.
The period of time necessary for a particular dried agent to kill the louse can be conveniently determined by rinsing the dried agent off lice as a function of time and observing whether the rinsed lice regain mobility upon drying off.
Six crawling lice were obtained from patients with head lice and each placed in a drop of […] ® Cleanser as described in EXAMPLE 1. After 2 min., the cleanser was dried onto the lice by air drying (4 lice) or gentle warm air from a hair dryer (2 lice).

O [water]
induction of the immersion reflex in lice (head lice [1]): triggers the immersion reflex | lice upon drying of the agent (head lice [2]): recover and regain mobility
